Reference: publication PMC6934184, “Selective DNA-PKcs inhibition extends the therapeutic index of localized radiotherapy and chemotherapy” (The Journal of Clinical Investigation, 2019)

Target: T1, CAMKK1 (CAMKKA) (Homo sapiens, UniProt Q8N5S9)
T1 construct: purchased Thermo Fisher Scientific (Life Technologies) SelectScreen
Assay: SelectScreen LanthaScreen
Format: binding
Settings: read-out: % displacement
How it was run: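 SelectScreen broad panel; activity (Z'LYTE, Adapta) plus binding formats. ATP: Km app for CSF1R Z'LYTE; 10 for CAMK1 Adapta. Readout = % per kinase.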

T1 sequence (Q8N5S9 whole entry): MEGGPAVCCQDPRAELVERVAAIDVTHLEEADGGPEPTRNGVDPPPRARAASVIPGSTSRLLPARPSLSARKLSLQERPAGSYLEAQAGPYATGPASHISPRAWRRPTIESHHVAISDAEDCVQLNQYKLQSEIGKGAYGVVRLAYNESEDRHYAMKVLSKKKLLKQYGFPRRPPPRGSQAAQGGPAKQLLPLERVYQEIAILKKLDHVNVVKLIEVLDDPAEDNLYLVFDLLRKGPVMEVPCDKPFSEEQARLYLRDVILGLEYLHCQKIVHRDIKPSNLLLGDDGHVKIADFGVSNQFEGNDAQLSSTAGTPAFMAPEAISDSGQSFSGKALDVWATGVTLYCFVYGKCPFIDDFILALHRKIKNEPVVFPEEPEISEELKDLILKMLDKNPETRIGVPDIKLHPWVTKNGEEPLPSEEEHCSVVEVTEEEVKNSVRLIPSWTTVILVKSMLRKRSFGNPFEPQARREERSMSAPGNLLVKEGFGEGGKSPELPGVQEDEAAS

## CN(C(=O)CN1CCOCC1)c1ccc2sc3c(-c4cccc5c(=O)cc(N6CC7CCC(C6)O7)oc45)cccc3c2c1 [NU5455]
  inhibition at 1 µM: -3.8%
